Read-outs that look alike come from different tables or passages of the source.
Assay: Plasma levels of florfenicol / pharmacokinetic analysis in cattle after subcutaneous administration
Format: in vivo
Conditions: bovine, sc, 40 mg/kg, subcutaneous florfenicol solution, 40 mg per kg of body weight
Experimental: Twenty-four head of cattle were used in the study as described below and were administered the formulations of the present invention. Serial blood samples were drawn at time 0 prior to dosing, then at 0.5, 1, 3, 6, 9, 12, 24, 36, 48, 60 and 72 hours post injection. The animals received one of the following treatment regimens.
The study was carried out in bovines of approximately 6 months of age or more that weigh about 125 kg or more. Selection was based on health status appearance, tractability and body weight. […] Animals that had received medication or have participated in another study in the previous 14 days were excluded from this study.
Plasma Levels of florfenicol were taken as follows: Approximately 10 mL of blood was collected from each calf by jugular venipuncture into a Vacutainer® tube containing sodium EDTA and processed for plasma.
Pharmacokinetic Analysis was carried out as follows: Plasma concentrations of florfenicol was reported in the appropriate units (i.e. μg/ml or ng/mL). Plasma florfenicol concentration versus time data was graphically presented for each individual animal, and as mean concentrations for the overall sample population.

In the case of `CS(=O)(=O)c1ccc([C@@H](O)[C@@H](CF)NC(=O)C(Cl)Cl)cc1` [florfenicol, D-(threo)-1-p-methylsulfonyl phenyl-2-dichloroacetamido-3-fluoro-1-propanol], the Cmax (FIG. 1, six cattle, read-out: Mean peak concentration (Cmax)) is reported as 6.37 µg/mL, the Tmax (FIG. 1, six cattle, read-out: Mean time to peak concentration (Tmax)) is reported as 5.5 h and the Cmax (FIG. 1, six cattle, read-out: Range of peak concentration (Cmax)) is reported as 5.08 to 7 µg/mL. For the same compound, the Tmax (FIG. 1, six cattle, read-out: Range of time to peak concentration (Tmax)) was 3 to 6 h, the Cmax (FIG. 2, six cattle, read-out: Mean peak concentration (Cmax)) was 4.25 µg/mL and the Tmax (FIG. 2, six cattle, read-out: Mean time to peak concentration (Tmax)) was 3.67 h. It also gave a Cmax (FIG. 2, six cattle, read-out: Range of peak concentration (Cmax)) of 3.46 to 5 µg/mL and a Tmax (FIG. 2, six cattle, read-out: Range of time to peak concentration (Tmax)) of 1 to 9 h.

From patent US9084719B2, “Compositions and method for treating infection in cattle and swine” (Intervet Inc., priority 2003, dated 2015)
